Consider 4 compounds from patent US3968101A, “8-Substituted cyclic nucleotides by free radical alkylation and acylation” (ICN Pharmaceuticals, Inc., priority 1974, dated 1976).

Experiment [1] concerns cAMP-dependent protein kinase. Description: Activation of cAMP-dependent protein kinase isolated from beef brain. It is filed as biochemical, bovine. Conditions: for Protein Kinase, Ka ' Bovine: ratio of Ka of cAMP to Ka of test compound, bovine brain cAMP-dependent kinase. The text has this:
The new 8-substituted purine cyclic nucleotides were examined for their ability to stimulate both a cAMP-dependent protein kinase isolated from beef brain and a cGMP-dependent protein kinase isolated from lobster tail (see Table II).
a Ka ' = The ratio of Ka of the dependent cyclic nucleotide (cAMP for bovine brain and cGMP for lobster tail) to the Ka of the test compound.

Experiment [2] relates to cGMP-dependent protein kinase. Description: Activation of cGMP-dependent protein kinase isolated from lobster tail. As to conditions: for Protein Kinase, Ka ' Lobster: ratio of Ka of cGMP to Ka of test compound, lobster tail cGMP-dependent kinase; for specificity between cGMP-dependent and cAMP-dependent protein kinase (in words): lobster tail cGMP-dependent versus bovine brain cAMP-dependent kinase. It is filed as biochemical. The text has this: The new 8-substituted purine cyclic nucleotides were examined for their ability to stimulate both a cAMP-dependent protein kinase isolated from beef brain and a cGMP-dependent protein kinase isolated from lobster tail (see Table II). […]. Acad. Sci. USA 64, 1349, Kuo et al, 1971, J. Biol. Chem. 246,7159) to be mediated by its activation of a protein kinase.
The Ka of cAMP for the cAMP-dependent protein kinase is about the same (see footnote a, Table II) as the Ka of cGMP for the cGMP-dependent protein kinase. Comparison of the Ka ' values (the ratio of Ka of the dependent cyclic nucleotide to the Ka of the test compound) is, therefore, an accurate guide to the type of kinase stimulation seen at a given cyclic nucleotide concentration.
a Ka ' = The ratio of Ka of the dependent cyclic nucleotide (cAMP for bovine brain and cGMP for lobster tail) to the Ka of the test compound. […]

In experiment [3] the test system is cyclic nucleotide phosphodiesterase. Description: Susceptibility to hydrolysis by rabbit kidney cyclic nucleotide phosphodiesterase. It is filed as biochemical. As to conditions: rabbit kidney enzyme preparation; times the rate of cAMP. The text has this:
All compounds were examined for their susceptibility to hydrolysis by cyclic nucleotide phosphodiesterase. Both cGMP and cIMP were hydrolyzed at approximately one-half the rate of cAMP by a rabbit kidney enzyme preparation generally prepared in the manner described below for rabbit lung enzyme. The new 8-substituted derivatives were not substrates (rate of hydrolysis<0.05 that of the rate of cAMP hydrolysis) within the limits of detection of our assay, with the sole exception of 8-(1-hydroxybutyl)-cGMP (12), which was hydrolyzed at a rate 0.18 times the rate of hydrolysis of cAMP. This finding is in agreement with the general conclusion that 8-substitution of a purine 3',5'-cyclic ribonucleotide greatly reduces the ability of the resulting derivative to serve as a substrate for cyclic nucleotide phosphodiesterase.

The target of experiment [4] is cyclic nucleotide phosphodiesterase. Description: Inhibition of cAMP hydrolysis by beef heart cyclic nucleotide phosphodiesterase. It is filed as biochemical. Conditions: beef heart enzyme; 50% inhibition of cleavage of cAMP, cAMP = 1.6 × 10^-7 M; read-out: Phosphodiesterase Inhibition, I50 Heart. The text has this:
(§1) Homogenates of rabbit lung and beef heart are made in sucrose-Tris-magnesium buffer and are subjected to centrifugation at low speed to remove nuclei and cell debris. […] The precipitation which forms at 0-50% saturation is collected by centrifugation at 20,000 × g, dissolved in Tris-magnesium buffer, and dialyzed overnight against the same buffer.

The target is the same in experiment [5]. Description: Inhibition of cAMP hydrolysis by rabbit lung cyclic nucleotide phosphodiesterase. As to conditions: rabbit lung enzyme; 50% inhibition of cleavage of cAMP, cAMP = 1.6 × 10^-7 M; read-out: Phosphodiesterase Inhibition, I50 Lung. It is filed as biochemical.
From the text: as §1

Consider `Nc1nc2c(ncn2[C@@H]2O[C@@H]3COP(=O)(O)O[C@H]3[C@H]2O)c(=O)[nH]1` [Compound 1, guanosine 3',5'-cyclic phosphate, reference compound], for which the “Protein Kinase, Ka ' Bovine” value in experiment [1] is 0.023. In experiment [2], the “Protein Kinase, Ka ' Lobster” value is recorded as 1.0. Besides, the “rate of hydrolysis relative to the rate of cAMP hydrolysis” value in experiment [3] was “approximately one-half”.
`CCCC(O)c1nc2c(=O)[nH]c(N)nc2n1[C@@H]1O[C@@H]2COP(=O)(O)O[C@H]2[C@H]1O` (stereo partly drawn) [Compound 12, 8-(1-Hydroxybutyl)guanosine 3',5'-Cyclic Phosphate]: in experiment [1], the “Protein Kinase, Ka ' Bovine” value was less than 0.001. For the same compound, the “Protein Kinase, Ka ' Lobster” value in experiment [2] is recorded as 0.62. Moreover, the IC50 in experiment [4] amounted to 29 µM; in experiment [5], 133 µM. Besides, in experiment [3], the “rate of hydrolysis relative to the rate of cAMP hydrolysis” value turned out to be 0.18.
On to `O=c1[nH]cnc2c1ncn2[C@@H]1O[C@@H]2COP(=O)(O)O[C@H]2[C@H]1O` [Compound 19, Inosine 3',5'-cyclic phosphate, reference compound], for which the “Protein Kinase, Ka ' Bovine” value in experiment [1] came out at 0.59. Further, in experiment [2], the “specificity between cGMP-dependent and cAMP-dependent protein kinase (in words)” value is listed as “greater activation of the cAMP-dependent kinase”; the “Protein Kinase, Ka ' Lobster” value turned out to be 0.085. In addition, the IC50 in experiment [4] came out at 3.9 µM. For the same compound, in experiment [3], the “rate of hydrolysis relative to the rate of cAMP hydrolysis” value is “approximately one-half”. For the same compound, the IC50 in experiment [5] was determined as 100 µM.
For the compound `O=C(c1ccccc1)c1nc2c(=O)[nH]cnc2n1[C@@H]1O[C@@H]2COP(=O)(O)O[C@H]2[C@H]1O` [Compound 21, 8-Benzoylinosine 3',5'-Cyclic Phosphate], the “activation of the cAMP-dependent protein kinase (in words)” value in experiment [1] (bovine brain kinase) is “slight activation”. Further, in experiment [1], the “Protein Kinase, Ka ' Bovine” value is reported as 0.070. Besides, the “specificity between cGMP-dependent and cAMP-dependent protein kinase (in words)” value in experiment [2] is reported as “slightly greater specificity for the cAMP-dependent enzyme”. Further, in experiment [2] (lobster tail kinase), the “ability to activate the cGMP-dependent protein kinase (in words)” value is given as “slight activation”. Further, in experiment [2], the “Protein Kinase, Ka ' Lobster” value is listed as 0.011. The IC50 was found to be 70 µM in experiment [4] and 400 µM in experiment [5].
